Data taken from patent publication US20240141294A1, “CGMP COMPLIANT PRODUCTION AND EXPANSION OF PLASMACYTOID DENDRITIC CELLS FROM HEMATOPOIETIC STEM AND PROGENITOR CELLS” (AARHUS UNIVERSITET, priority 2021, published 2024).

Experiments:
[1] = system: Cord-blood derived CD34+HSPCs; assay: SR1/IL-3 deprivation during final 3 days of HSPC-pDC differentiation: cell growth and viability; format: cell-based, human
Protocol: In addition, 1 μM of the small molecule inhibitor StemRegenin 1 (SR1, […] Technologies), 20 μg/mL streptomycin and 20 U/mL penicillin (Gibco, Life Technologies) and 50 μg/mL of ascorbic acid (Sigma Aldrich) was added. Cells were cultured at 37° C., 95% humidity, and 5% CO2 for 17 days, medium was replenished every 2-4 day. […] Viability and total cell numbers during expansion and differentiation of HSPCs was determined using a TC20 Automated Cell Counter (Bio-Rad).

[2] = system: HSPC-pDCs; assay: SR1/IL-3 deprivation: flow cytometry of CD123 and CD303; format: cell-based, human
Protocol: Priming of HSPC-pDCs was performed as previously described [Laustsen, A., et al 2018]. […] HSPC-pDCs were primed with 250 U/mL IFN-β (PBL Assay Science) and 250 U/mL IFN-γ (Peprotech) or left unprimed. Cells were primed for 24 hours before being phenotypically and functionally characterized.
Flow cytometry was used to immunophenotype pDCs. Briefly, cells were spun down and resuspended in 25 μL TruStain FcBlock (Biolegend) diluted in cold FACS buffer (PBS with 2% FCS and 1 mM EDTA) and incubated cold for 15 minutes. Cells were subsequently stained 25 μL with the following antibodies: APC anti-human Lineage Cocktail (CD3 (UCHT1), CD14 (HCD14), CD16 (3G8), CD19 (HIB19), CD20 (2H7) and CD56 (HCD56), 348801, BioLegend), FITC anti-human CD11c (3.9, 301604, BioLegend), BV421 CD14 (HCD14, 325628, BioLegend), PE CD34 (581, 343506, BioLegend), APC-eFluor780 anti-human CD123 (6H6, 47-1239-42, eBioscience), PE-Cy7 anti-human CD303 (201a, 354214, BioLegend). Cells were stained for 30 min before being washed two times in FACS buffer and finally resuspended in 200 μL FACS Buffer. Fluorescence intensities were measured using the Attune NxT Flow Cytometer equipped with 4 lasers (405 nm, 488 nm, 561 nm, and 638 nm). Data analysis was done using FlowJo (Version 10.8.1, Tree Star, Ashland, OR, USA.

Structure (SMILES): CC(C)n1cnc2c(NCCc3ccc(O)cc3)nc(-c3csc4ccccc34)nc21 [SR1, StemRegenin 1]
- fold change in number of cells in culture after the 3 days ([1]; named supplement removed day 14-17, standard condition 2.31 (±0.49)): 2.38 (±0.23)
- difference in the number of cells in culture between day 14 and 17 ([1]; named supplement removed from media day 14-17, standard condition 22.5×10^6 (±2.15×10^6)): 25.3×10^6 (±3.12×10^6) cells
- CD303 surface expression ([2]; SR1 removed from media vs standard condition): no apparent difference
- CD123 surface expression ([2]; SR1 removed from media, standard culturing condition MEI 1938): 988 (±391) MEI
